The values below come from US10168342B2, “Lipid probes and uses thereof” (THE SCRIPPS RESEARCH INSTITUTE, priority 2015, dated 2019).

The target of assay [1] is T1, AEA-DA lipid probe targets in Neuro2a cells (Mus musculus, UniProt Q8JZN5).
T1 sequence (Q8JZN5 42-625): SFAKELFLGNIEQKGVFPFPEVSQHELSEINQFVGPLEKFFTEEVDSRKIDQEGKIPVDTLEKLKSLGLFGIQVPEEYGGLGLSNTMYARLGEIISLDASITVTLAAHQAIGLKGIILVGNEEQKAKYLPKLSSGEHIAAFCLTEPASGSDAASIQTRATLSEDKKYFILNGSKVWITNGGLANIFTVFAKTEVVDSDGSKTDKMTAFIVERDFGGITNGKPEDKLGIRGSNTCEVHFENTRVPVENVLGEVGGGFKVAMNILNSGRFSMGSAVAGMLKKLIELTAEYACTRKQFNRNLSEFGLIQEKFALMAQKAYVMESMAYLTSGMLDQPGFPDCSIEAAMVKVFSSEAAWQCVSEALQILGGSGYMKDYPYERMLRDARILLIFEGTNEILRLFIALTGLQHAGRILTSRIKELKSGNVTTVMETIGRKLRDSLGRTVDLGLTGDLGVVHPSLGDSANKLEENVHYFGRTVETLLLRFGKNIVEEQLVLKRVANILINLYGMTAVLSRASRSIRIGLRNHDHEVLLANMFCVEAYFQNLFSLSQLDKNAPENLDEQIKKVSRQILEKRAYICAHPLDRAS

Assay [2] concerns the target AEA-DA lipid probe targets in Neuro2a cells (Mus musculus, UniProt Q9DBC7).
The target in assay [3] is T2, AEA-DA lipid probe targets in Neuro2a cells (Mus musculus, UniProt P51174).
T2 sequence (P51174 31-430): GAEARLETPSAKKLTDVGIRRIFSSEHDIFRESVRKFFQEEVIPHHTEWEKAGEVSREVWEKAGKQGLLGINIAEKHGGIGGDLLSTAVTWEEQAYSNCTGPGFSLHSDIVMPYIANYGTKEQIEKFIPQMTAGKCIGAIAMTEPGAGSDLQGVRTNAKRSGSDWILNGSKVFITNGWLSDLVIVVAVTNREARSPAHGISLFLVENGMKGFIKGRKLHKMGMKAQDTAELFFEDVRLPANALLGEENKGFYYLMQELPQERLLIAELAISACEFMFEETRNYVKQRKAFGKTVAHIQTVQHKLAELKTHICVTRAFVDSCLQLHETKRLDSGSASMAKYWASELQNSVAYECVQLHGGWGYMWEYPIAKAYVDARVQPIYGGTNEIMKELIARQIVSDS

The target in assay [4] is T3, AEA-DA lipid probe targets in Neuro2a cells (Mus musculus, UniProt Q91ZV0).
T3 sequence (Q91ZV0 23-1396): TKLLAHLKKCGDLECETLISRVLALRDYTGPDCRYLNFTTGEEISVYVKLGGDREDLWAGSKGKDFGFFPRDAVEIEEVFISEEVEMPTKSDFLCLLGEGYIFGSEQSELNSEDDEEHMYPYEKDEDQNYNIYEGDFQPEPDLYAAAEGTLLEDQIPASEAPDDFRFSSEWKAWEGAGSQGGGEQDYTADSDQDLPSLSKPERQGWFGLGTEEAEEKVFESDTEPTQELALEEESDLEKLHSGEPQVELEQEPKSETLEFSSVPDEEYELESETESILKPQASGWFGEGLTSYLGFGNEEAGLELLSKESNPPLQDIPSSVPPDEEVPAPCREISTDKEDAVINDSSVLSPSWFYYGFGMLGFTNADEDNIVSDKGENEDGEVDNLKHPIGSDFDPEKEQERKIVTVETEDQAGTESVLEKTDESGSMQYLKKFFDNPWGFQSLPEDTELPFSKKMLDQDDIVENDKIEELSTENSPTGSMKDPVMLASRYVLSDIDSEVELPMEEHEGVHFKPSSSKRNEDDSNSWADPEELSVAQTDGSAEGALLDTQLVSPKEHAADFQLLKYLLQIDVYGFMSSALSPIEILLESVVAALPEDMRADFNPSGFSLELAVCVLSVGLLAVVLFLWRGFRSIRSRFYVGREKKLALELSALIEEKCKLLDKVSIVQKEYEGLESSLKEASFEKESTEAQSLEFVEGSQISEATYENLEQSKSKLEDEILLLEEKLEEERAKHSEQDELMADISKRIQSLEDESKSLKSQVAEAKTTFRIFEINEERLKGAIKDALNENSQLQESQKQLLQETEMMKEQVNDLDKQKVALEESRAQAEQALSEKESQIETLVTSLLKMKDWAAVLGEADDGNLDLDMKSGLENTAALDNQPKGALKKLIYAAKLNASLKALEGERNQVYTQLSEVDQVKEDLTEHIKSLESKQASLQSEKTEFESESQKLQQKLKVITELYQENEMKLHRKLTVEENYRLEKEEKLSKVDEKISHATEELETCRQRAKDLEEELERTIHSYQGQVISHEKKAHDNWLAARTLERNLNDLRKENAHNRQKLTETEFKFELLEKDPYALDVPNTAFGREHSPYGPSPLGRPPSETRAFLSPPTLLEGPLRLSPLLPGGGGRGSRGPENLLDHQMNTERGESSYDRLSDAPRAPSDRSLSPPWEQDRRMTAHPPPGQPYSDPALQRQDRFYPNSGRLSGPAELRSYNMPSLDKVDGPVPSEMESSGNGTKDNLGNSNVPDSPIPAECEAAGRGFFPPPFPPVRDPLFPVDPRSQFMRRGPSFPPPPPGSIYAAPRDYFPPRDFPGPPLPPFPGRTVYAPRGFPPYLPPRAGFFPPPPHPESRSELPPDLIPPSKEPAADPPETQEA

Assay [5] addresses T4, AEA-DA lipid probe targets in Neuro2a cells (Mus musculus, UniProt Q8BXV2).
T4 sequence (Q8BXV2 1-253): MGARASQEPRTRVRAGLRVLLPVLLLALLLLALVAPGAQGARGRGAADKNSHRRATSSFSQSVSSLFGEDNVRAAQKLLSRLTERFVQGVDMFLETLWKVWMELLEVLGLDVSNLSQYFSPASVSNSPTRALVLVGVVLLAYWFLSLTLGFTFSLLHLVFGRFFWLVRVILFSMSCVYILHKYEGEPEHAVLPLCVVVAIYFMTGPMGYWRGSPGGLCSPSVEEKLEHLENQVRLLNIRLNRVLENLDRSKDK

For assay [6], the target named is AEA-DA lipid probe targets in Neuro2a cells (Mus musculus, UniProt Q8VE88).

Where two headings read alike, the source gives them in different places.

AEA-DA lipid probe targets in Neuro2a cells (Mus musculus, UniProt Q8VE88), sequence (Q8VE88 whole entry): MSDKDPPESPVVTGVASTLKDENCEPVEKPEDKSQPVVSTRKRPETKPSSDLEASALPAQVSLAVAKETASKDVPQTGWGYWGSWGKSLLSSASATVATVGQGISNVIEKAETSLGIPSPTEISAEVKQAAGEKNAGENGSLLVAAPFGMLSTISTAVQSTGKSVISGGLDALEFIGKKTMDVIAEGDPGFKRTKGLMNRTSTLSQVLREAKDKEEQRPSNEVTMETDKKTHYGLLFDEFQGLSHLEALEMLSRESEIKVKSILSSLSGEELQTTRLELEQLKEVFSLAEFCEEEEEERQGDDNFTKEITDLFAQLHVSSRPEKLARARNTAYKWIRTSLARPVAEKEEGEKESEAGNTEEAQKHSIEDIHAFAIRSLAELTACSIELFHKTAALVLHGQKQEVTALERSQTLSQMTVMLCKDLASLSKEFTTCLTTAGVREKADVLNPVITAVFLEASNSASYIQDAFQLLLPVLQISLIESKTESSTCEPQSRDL
AEA-DA lipid probe targets in Neuro2a cells (Mus musculus, UniProt Q9DBC7), sequence (Q9DBC7 whole entry): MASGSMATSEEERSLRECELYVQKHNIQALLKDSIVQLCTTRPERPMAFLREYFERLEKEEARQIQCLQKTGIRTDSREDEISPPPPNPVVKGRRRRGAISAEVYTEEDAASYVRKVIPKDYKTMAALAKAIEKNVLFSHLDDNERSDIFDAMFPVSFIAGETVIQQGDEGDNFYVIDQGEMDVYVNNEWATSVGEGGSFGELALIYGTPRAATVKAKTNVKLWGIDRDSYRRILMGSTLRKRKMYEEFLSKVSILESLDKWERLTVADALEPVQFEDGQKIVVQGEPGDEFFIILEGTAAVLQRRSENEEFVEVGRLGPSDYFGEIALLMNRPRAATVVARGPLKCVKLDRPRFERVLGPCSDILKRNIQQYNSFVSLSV

`C=CCN(C)CCCCCCOc1ccc(C(=O)c2ccc(Br)cc2)c(F)c1` [Ro 48-8071, reference compound]: in assay [1] (competitor 25 μM), the “SILAC ratio Acad9” value turned out to be 1.3. In assay [2] (competitor 25 μM), the “SILAC ratio, Prkar1a” value is listed as 1.0. Moreover, in assay [3] (competitor 25 μM), the “SILAC ratio, Acadl” value came to 1.3. In addition, the “SILAC ratio, Ctage5” value in assay [4] (competitor 25 μM) is reported as 1.0. The “SILAC ratio, Bri3bp” value in assay [5] (competitor 25 μM) turned out to be 1.1. Moreover, the “SILAC ratio, Fam114a2” value in assay [6] (competitor 25 μM) was 1.6.
On to `CN1CCN(C(=O)c2[nH]c3ccc([N+](=O)[O-])cc3c2-c2ccccc2)CC1` [MJN228, (4-Methylpiperazin-1-yl)(5-nitro-3-phenyl-1H-indol-2-yl)methanone], for which the “SILAC ratio Acad9” value in assay [1] (competitor 10 μM) turned out to be 1.4; in assay [1] (competitor 25 μM), 1.2; in assay [1] (competitor 50 μM), 1.4; in assay [1] (competitor 100 μM), 1.4. In addition, the “SILAC ratio, Prkar1a” value stood at 1.9 in assay [2] (competitor 10 μM), 1.9 in assay [2] (competitor 25 μM), 2.1 in assay [2] (competitor 50 μM) and 2.8 in assay [2] (competitor 100 μM). For the same molecule, the “SILAC ratio, Acadl” value is 1.4 in assay [3] (competitor 10 μM), 1.8 in assay [3] (competitor 25 μM), 2.0 in assay [3] (competitor 50 μM) and 2.4 in assay [3] (competitor 100 μM). In addition, the “SILAC ratio, Ctage5” value in assay [4] (competitor 10 μM) was 1.1; in assay [4] (competitor 25 μM) it was 1.3; in assay [4] (competitor 50 μM) it was 1.5; in assay [4] (competitor 100 μM), 1.7. Besides, the “SILAC ratio, Bri3bp” value in assay [5] (competitor 10 μM) turned out to be 1.3; in assay [5] (competitor 25 μM), 1.5; in assay [5] (competitor 50 μM), 1.4; in assay [5] (competitor 100 μM), 2.1. Besides, the “SILAC ratio, Fam114a2” value in assay [6] (competitor 10 μM) amounted to 1.6; in assay [6] (competitor 25 μM), 3.5; in assay [6] (competitor 50 μM), 4.1; in assay [6] (competitor 100 μM), 7.6.
On to `CCCCC/C=C\C/C=C\C/C=C\C/C=C\CCCC(=O)NCCO` [AEA, anandamide, reference compound], for which, in assay [2] (competitor 200 μM), the “SILAC ratio, Prkar1a” value stood at 1.2. Further, in assay [3] (competitor 200 μM), the “SILAC ratio, Acadl” value amounted to 1.1. For the same molecule, in assay [4] (competitor 200 μM), the “SILAC ratio, Ctage5” value was 2.3. The “SILAC ratio, Bri3bp” value in assay [5] (competitor 200 μM) is 2.0. For the same molecule, the “SILAC ratio, Fam114a2” value in assay [6] (competitor 200 μM) is 1.4.
For `CN1CCN(C(=O)c2c(-c3ccccc3)c3cc([N+](=O)[O-])ccc3n2C)CC1` [KML110, (1-Methyl-5-nitro-3-phenyl-1H-indol-2-yl)(4-methylpiperazin-1-yl)methanone], in assay [1] (competitor 25 μM), the “SILAC ratio Acad9” value is reported as 1.7. Moreover, in assay [2] (competitor 25 μM), the “SILAC ratio, Prkar1a” value came out at 1.6. For the same molecule, in assay [3] (competitor 25 μM), the “SILAC ratio, Acadl” value came to 1.8. In assay [4] (competitor 25 μM), the “SILAC ratio, Ctage5” value was determined as 1.4. Also, the “SILAC ratio, Bri3bp” value in assay [5] (competitor 25 μM) is recorded as 1.6. Besides, in assay [6] (competitor 25 μM), the “SILAC ratio, Fam114a2” value is reported as 2.2.
As to `O=C(/C=C/c1cccnc1)NCCCCC1CCN(C(=O)c2ccccc2)CC1` [FK-866, reference compound], in assay [1] (competitor 25 μM), the “SILAC ratio Acad9” value is 1.2. The “SILAC ratio, Prkar1a” value in assay [2] (competitor 25 μM) came out at 1.5. In addition, the “SILAC ratio, Acadl” value in assay [3] (competitor 25 μM) was 12.4. Besides, the “SILAC ratio, Ctage5” value in assay [4] (competitor 25 μM) was determined as 1.1. For the same molecule, in assay [5] (competitor 25 μM), the “SILAC ratio, Bri3bp” value was determined as 1.1. Moreover, the “SILAC ratio, Fam114a2” value in assay [6] (competitor 25 μM) was 1.0.
